In paper PMC5515969, “Effects of 31 FDA approved small-molecule kinase inhibitors on isolated rat liver mitochondria” (Archives of Toxicology, 2016):
Where two headings read alike, the source gives them in different places. Marks after values point to notes of the source that are not given here.

Legend:
[1] = ref product labeling, cited from earlier work; for Labeling for cardiotoxicity: BBW: black box warning, W&P: Warnings and Precautions
[2] = tested on: isolated rat liver mitochondria; assay: Mitochondrial inner membrane potential (MMP), Rhodamine 123; assay type: biochemical; settings: for MMP measured by Rhodamine 123 at 1XCmax / MMP measured by Rhodamine 123 at 2.5XCmax / MMP measured by Rhodamine 123 at 5XCmax / MMP measured by Rhodamine 123 at 10XCmax / MMP measured by Rhodamine 123 at 20XCmax / MMP measured by Rhodamine 123 at 30XCmax / MMP measured by Rhodamine 123 at 50XCmax / MMP measured by Rhodamine 123 at 100XCmax: difference in signal between KI and DMSO treated samples at the end of experiments; for effect on MMP: up to 100-fold Cmax or highest testable concentration
Excerpt: Fig. 3 KI effects on mitochondrial inner membrane potential (MMP). […] In a, c, data are means and standard derivations from three separate experiments. *p < 0.05 as compared to DMSO-treated samples at the end of experiments. In b, data are means of two independent experiments

RCC IV = RCC IV activity in submitochondrial particles; assay type: biochemical, rat; design: key to RCC IV at 50XCmax / RCC IV at 100XCmax: activity relative to DMSO-treated controls (control set as 1 = 100%); settings: for RCC IV at 50XCmax: in %; for RCC activity IV: 15 min, DMSO-treated = 100
Summary of the method: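 Absorbance kinetics: A340 (RCC I, V) and A600 (RCC II) read each minute over 6 min, A550 (RCC III, IV) every 10 s over 2 min; RCC I taken as […]. Particles (1 mg/ml) pretreated 15 min with compound; DMSO-treated activity = 1.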

[3] = Solubility of DMSO stock for 100X/50X Cmax testing; assay type: physicochemical; settings: precipitation of DMSO stock
Excerpt: (§1) Supplement 204_2016_1918_MOESM3_ESM.xlsx, sheet "Sheet1" | column: 100 Cmax; 50 Cmax; note

[4] = tested on: isolated rat liver mitochondria; assay: Mitochondrial toxicity, any endpoint, intact mitochondria and submitochondrial particles; assay type: biochemical; settings: for mitochondrial injury: concentrations equal to 100-fold Cmax; for lowest concentration causing significant mitochondrial toxicity: any endpoint
Summary of the method: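 Rat liver mitochondria isolated by differential centrifugation in sucrose/Tris-MOPS/EGTA buffer pH 7.4, adjusted to 1 mg/ml protein before treatment. Kinase inhibitors added at 1:1000 dilution of stock; final DMSO 0.1%, with 0.1% DMSO controls.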

RCC I–V = assay: Activities of RCC I–V, overall statements; assay type: biochemical, rat; settings: submitochondrial particles; for RCCs inhibited: up to 100-fold Cmax or highest testable concentration
Procedure: KIs were incubated with submitochondrial particles (1 mg/ml) for 15 min and then RCC I–V activities measured. […] The activities of DMSO-treated samples (controls) were set as 1. […] The difference between the activity from rotenone-containing buffer and rotenone-absent buffer was considered as RCC I activity. […] For measuring RCC I/V and II activity, the changes in absorbance at 340 and 600 nm, respectively, were determined every 1 min for 6 min. For measuring RCC III and RCC IV, the changes in absorbance at 550 nm were measured every 10 s for 2 min.

[5] = design: method as in product labeling; settings: ref product labeling, cited from earlier work; for Labeling for cardiotoxicity: BBW: black box warning, W&P: Warnings and Precautions
[6] = Solubility of drug in DMSO stock / reaction buffer at multiples of Cmax; assay type: physicochemical
Excerpt: as §1

SMILES: O=C(c1ccc(F)c(F)c1Nc1ccc(I)cc1F)N1CC(O)([C@@H]2CCCCN2)C1 [Cobimetinib]
- Labeling for cardiotoxicity [1]: W&P: Cardiomyopathy
- Potential for cardiotoxicity (based on labeling) [1]: 1
- MMP measured by Rhodamine 123 at 1XCmax [2]: 0
- MMP measured by Rhodamine 123 at 2.5XCmax [2]: 0
- MMP measured by Rhodamine 123 at 5XCmax [2]: 0
- MMP measured by Rhodamine 123 at 10XCmax [2]: 0
- MMP measured by Rhodamine 123 at 20XCmax [2]: 0
- MMP measured by Rhodamine 123 at 30XCmax [2]: 0
- MMP measured by Rhodamine 123 at 50XCmax [2]: 0
- MMP measured by Rhodamine 123 at 100XCmax [2]: 0
- RCC IV at 50XCmax (RCC IV; DMSO treated samples set as 1): 0

SMILES: CC[C@H](Nc1ncnc2[nH]cnc12)c1nc2cccc(F)c2c(=O)n1-c1ccccc1 [Idelalisib]
- Potential for cardiotoxicity (based on labeling) [1]: 0
- MMP measured by Rhodamine 123 at 1XCmax [2]: 0
- MMP measured by Rhodamine 123 at 2.5XCmax [2]: 0
- MMP measured by Rhodamine 123 at 5XCmax [2]: 0
- MMP measured by Rhodamine 123 at 10XCmax [2]: 0
- MMP measured by Rhodamine 123 at 20XCmax [2]: 0
- MMP measured by Rhodamine 123 at 30XCmax [2]: 0
- MMP measured by Rhodamine 123 at 50XCmax [2]: 0
- MMP measured by Rhodamine 123 at 100XCmax [2]: 0
- note (DMSO stock) [3]: 464 mM will precipitate
- RCC IV at 50XCmax (RCC IV; DMSO treated samples set as 1): 0
- mitochondrial injury [4]: mitochondrial injury was induced

SMILES: Cc1cc(Nc2ncc(Cl)c(Nc3ccccc3S(=O)(=O)C(C)C)n2)c(OC(C)C)cc1C1CCNCC1 [Ceritinib]
- RCCs inhibited (RCC I–V): all five RCCs
- Labeling for cardiotoxicity [1]: W&P:QT Interval Prolongation; Bradycardia
- Potential for cardiotoxicity (based on labeling) [1]: 1
- lowest concentration decreasing MMP [2]: 100 fold Cmax
- MMP measured by Rhodamine 123 at 1XCmax [2]: 0
- MMP measured by Rhodamine 123 at 2.5XCmax [2]: 0
- MMP measured by Rhodamine 123 at 5XCmax [2]: 0
- MMP measured by Rhodamine 123 at 10XCmax [2]: 0
- MMP measured by Rhodamine 123 at 20XCmax [2]: 0
- MMP measured by Rhodamine 123 at 30XCmax [2]: 0
- MMP measured by Rhodamine 123 at 50XCmax [2]: 0
- MMP measured by Rhodamine 123 at 100XCmax [2]: 4568±757*
- effect on MMP [2]: decrease in MMP
- RCC activity IV (RCC IV; 50-fold Cmax): 82.33 ± 3.68 % of control
- RCC IV at 50XCmax (RCC IV; DMSO treated samples set as 1): 82.33±3.68
- RCC activity IV (RCC IV; 100-fold Cmax): 71.46 ± 7.39 % of control
- RCC IV at 100XCmax (RCC IV; 100XCmax): 71.46±7.39

SMILES: CNC(=O)c1cc(Oc2ccc(NC(=O)Nc3ccc(Cl)c(C(F)(F)F)c3)c(F)c2)ccn1 [Regorafenib]
- Labeling for cardiotoxicity [5]: W&P: Cardiac Ischemia and Infarction
- Potential for cardiotoxicity (based on labeling) [5]: 1
- lowest concentration inhibiting RCCs (RCC I–V): 10 fold Cmax
- RCCs inhibited (RCC I–V): RCC II
- lowest concentration decreasing MMP [2]: onefold
- MMP measured by Rhodamine 123 at 1XCmax [2]: 4244±687*
- MMP measured by Rhodamine 123 at 2.5XCmax [2]: 4112±722*
- MMP measured by Rhodamine 123 at 5XCmax [2]: 3961±724*
- MMP measured by Rhodamine 123 at 10XCmax [2]: 3711±588*
- effect on MMP [2]: decrease in MMP
- RCC activity IV (RCC IV; 10-fold Cmax): 95.37 ± 6.45 % of control
- note (solubility) [6]: 808 mM will precipitate
- lowest concentration causing significant mitochondrial toxicity [4]: equal to the Cmax
- mitochondrial injury [4]: mitochondrial injury was induced

SMILES: CC(=O)Nc1cccc(-n2c(=O)n(C3CC3)c(=O)c3c(Nc4ccc(I)cc4F)n(C)c(=O)c(C)c32)c1 [Trametinib]
- Labeling for cardiotoxicity [1]: W&P: Cardiomyopathy
- Potential for cardiotoxicity (based on labeling) [1]: 1
- MMP measured by Rhodamine 123 at 1XCmax [2]: 0
- MMP measured by Rhodamine 123 at 2.5XCmax [2]: 0
- MMP measured by Rhodamine 123 at 5XCmax [2]: 0
- MMP measured by Rhodamine 123 at 10XCmax [2]: 0
- MMP measured by Rhodamine 123 at 20XCmax [2]: 0
- MMP measured by Rhodamine 123 at 30XCmax [2]: 0
- MMP measured by Rhodamine 123 at 50XCmax [2]: 0
- MMP measured by Rhodamine 123 at 100XCmax [2]: 0
- RCC IV at 50XCmax (RCC IV; DMSO treated samples set as 1): 0

SMILES: CC(=O)c1c(C)c2cnc(Nc3ccc(N4CCNCC4)cn3)nc2n(C2CCCC2)c1=O.Cl [palbociclib hydrochloride]
- Potential for cardiotoxicity (based on labeling) [1]: 0
- MMP measured by Rhodamine 123 at 1XCmax [2]: 0
- MMP measured by Rhodamine 123 at 2.5XCmax [2]: 0
- MMP measured by Rhodamine 123 at 5XCmax [2]: 0
- MMP measured by Rhodamine 123 at 10XCmax [2]: 0
- MMP measured by Rhodamine 123 at 20XCmax [2]: 0
- MMP measured by Rhodamine 123 at 30XCmax [2]: 0
- MMP measured by Rhodamine 123 at 50XCmax [2]: 0
- MMP measured by Rhodamine 123 at 100XCmax [2]: 0
- note (DMSO stock) [3]: 100X will precipitate
- RCC IV at 50XCmax (RCC IV; DMSO treated samples set as 1): 0

SMILES: CN(C)C/C=C/C(=O)Nc1cc2c(Nc3ccc(F)c(Cl)c3)ncnc2cc1O[C@H]1CCOC1 [afatinib dimaleate]
- Potential for cardiotoxicity (based on labeling) [1]: 0
- MMP measured by Rhodamine 123 at 1XCmax [2]: 0
- MMP measured by Rhodamine 123 at 2.5XCmax [2]: 0
- MMP measured by Rhodamine 123 at 5XCmax [2]: 0
- MMP measured by Rhodamine 123 at 10XCmax [2]: 0
- MMP measured by Rhodamine 123 at 20XCmax [2]: 0
- MMP measured by Rhodamine 123 at 30XCmax [2]: 0
- MMP measured by Rhodamine 123 at 50XCmax [2]: 0
- MMP measured by Rhodamine 123 at 100XCmax [2]: 0
- RCC IV at 50XCmax (RCC IV; DMSO treated samples set as 1): 0

SMILES: COC(=O)c1ccc2c(c1)NC(=O)/C2=C(\Nc1ccc(N(C)C(=O)CN2CCN(C)CC2)cc1)c1ccccc1 [Nintedanib]
- Potential for cardiotoxicity (based on labeling) [1]: 0
- MMP measured by Rhodamine 123 at 1XCmax [2]: 0
- MMP measured by Rhodamine 123 at 2.5XCmax [2]: 0
- MMP measured by Rhodamine 123 at 5XCmax [2]: 0
- MMP measured by Rhodamine 123 at 10XCmax [2]: 0
- MMP measured by Rhodamine 123 at 20XCmax [2]: 0
- MMP measured by Rhodamine 123 at 30XCmax [2]: 0
- MMP measured by Rhodamine 123 at 50XCmax [2]: 0
- MMP measured by Rhodamine 123 at 100XCmax [2]: 0
- RCC IV at 50XCmax (RCC IV; DMSO treated samples set as 1): 0

SMILES: CCCS(=O)(=O)Nc1ccc(F)c(C(=O)c2c[nH]c3ncc(-c4ccc(Cl)cc4)cc23)c1F [Vemurafenib]
- Labeling for cardiotoxicity [5]: W&P: QT Prolongation
- Potential for cardiotoxicity (based on labeling) [5]: 1
- MMP measured by Rhodamine 123 at 1XCmax [2]: 0
- MMP measured by Rhodamine 123 at 2.5XCmax [2]: 0
- MMP measured by Rhodamine 123 at 5XCmax [2]: 0
- MMP measured by Rhodamine 123 at 10XCmax [2]: 0
- MMP measured by Rhodamine 123 at 20XCmax [2]: 0
- MMP measured by Rhodamine 123 at 30XCmax [2]: 0
- MMP measured by Rhodamine 123 at 50XCmax [2]: 0
- MMP measured by Rhodamine 123 at 100XCmax [2]: 0
- RCC IV at 50XCmax (RCC IV; relative to DMSO treated samples): 0

SMILES: CC(C)(C)c1nc(-c2cccc(NS(=O)(=O)c3c(F)cccc3F)c2F)c(-c2ccnc(N)n2)s1 [Dabrafenib]
- RCCs inhibited (RCC I–V): no effects on RCC activities
- Labeling for cardiotoxicity [1]: W&P: Cardiomyopathy
- Potential for cardiotoxicity (based on labeling) [1]: 1
- lowest concentration decreasing MMP [2]: 20 fold Cmax
- MMP measured by Rhodamine 123 at 1XCmax [2]: 0
- MMP measured by Rhodamine 123 at 2.5XCmax [2]: 0
- MMP measured by Rhodamine 123 at 5XCmax [2]: 0
- MMP measured by Rhodamine 123 at 10XCmax [2]: 0
- MMP measured by Rhodamine 123 at 20XCmax [2]: 660±95*
- MMP measured by Rhodamine 123 at 30XCmax [2]: 773±60*
- MMP measured by Rhodamine 123 at 50XCmax [2]: 953±54*
- MMP measured by Rhodamine 123 at 100XCmax [2]: 926±89*
- effect on MMP [2]: decrease in MMP
- RCC IV at 50XCmax (RCC IV; DMSO treated samples set as 1): 0
- lowest concentration causing significant mitochondrial toxicity [4]: 5 fold Cmax
